# Reference: patent US8865901B2, “Gain-of-function Bcl-2 inhibitors” (priority 2009, dated 2014)
# Where two headings read alike, the source gives them in different places.
# Columns and labels:
# [1] = test system: TAMH cells overexpressing Bcl-xL (TAMH-Bcl-xL, Tabx2s); assay: Cytotoxicity / apoptosis induction in TAMH cells overexpressing Bcl-xL; assay type: cell-based; conditions: for Neo:Bcl: ratio Neo to Bcl-xL cells
# Protocol: (§1) To examine the sensitivity of cells over-expressing Bcl-xL to various mitochondrial inhibitors and apoptosis inducers, cell lines over-expressing Bcl-xL were prepared and tested according to Hockenberry et al. U.S. Pat. No. 7,241,804, hereby incorporated by reference in its entirety. Competitive binding of compounds with fluorescent antimycin A3, and competitive binding of compounds with BH3 peptide and Bcl-2. Competitive binding of compounds with BH-3 peptide were also measured using Bcl-xL as previously described. Id.
# (§2) Cell lines were grown in RPMI 1640 medium (Gibco, Grand Island, N.Y.) supplemented with 5% fetal bovine serum (Hyclone, Logan, Utah). Also shown is the ratio of TAMH cells expressing Bcl-xL to those expressing A142L (WT:142L). The assay measures the potency of various compounds with respect to inducing apoptosis in these cells.
# (§3) The compounds described in Example 2 were tested for their ability to inhibit Bcl-2 gain-of-function in TAMH cells, TAMH cells overexpressing […] (TAMH-Bcl-xL), TAMH cells transfected with Neo vector (Neo), TAMH cells over expressing a variant of Bcl-xL (A142L) using the methods of Example 1. 3-6.
# (§4) The effects of the compounds described in Example 8 on TAMH cells, TAMH cells overexpressing Bcl-xL (TAMH-Bcl-xL), TAMH cells transfected with Neo vector (Neo), TAMH cells over expressing a variant of Bcl-xL (A142L) is shown in Table 8
# (§5) The effects of the compounds described in Example 10 on TAMH cells, TAMH cells overexpressing Bcl-xL (TAMH-Bcl-xL), TAMH cells transfected with Neo vector (Neo), TAMH cells over expressing a variant of Bcl-xL (A142L) is shown in the following Table 10
# [2] = test system: TAMH cells transfected with Neo vector (Neo); assay: Cytotoxicity / apoptosis induction in TAMH cells transfected with Neo vector; assay type: cell-based; conditions: for EC50: TAMH Neo cells
# Protocol: as §1, §2, §3, §4, §5
# [3] = test system: TAMH cells over expressing a variant of Bcl-xL (A142L); assay: Cytotoxicity / apoptosis induction in TAMH cells over expressing Bcl-xL variant A142L; assay type: cell-based; conditions: Table 4; for EC50: TAMH A142L cells; for WT:142L: ratio of TAMH cells expressing Bcl-xL to those expressing A142L
# Protocol: as §1, §2, §3
# H23, NSCLC tumor = assay: Apoptosis induction against solid tumors in vitro, H23; assay type: cell-based; conditions: Homo sapiens, NCI-H23; Table 21
# Protocol: (§6) The ability of compounds from Example 2 to induce apoptosis against solid tumors in vitro was tested. Four solid tumors were tested: OVCAR-3, an ovarian tumor; COLO205, a colonic tumor; HOP-62 and H23, both NSCLC tumors. The experimental compounds were compared to 2MeAA and to ABT-737, a clinical stage compound owned by Abbott Pharma.
# (§7) The ability of compounds of Example 8 to induce apoptosis against solid tumors in vitro was tested. Four solid tumors were tested: OVCAR-3, an ovarian tumor; COLO205, a colonic tumor; HOP-62 and H23, both NSCLC tumors. The experimental compounds, […]
# [4] = test system: OVCAR-3, an ovarian tumor; assay: Apoptosis induction against solid tumors in vitro, OVCAR-3; assay type: cell-based; conditions: Homo sapiens; Table 21
# Protocol: as §6, §7
# COLO205, a colonic tumor = assay: Apoptosis induction against solid tumors in vitro, COLO205; assay type: cell-based; conditions: Homo sapiens, COLO 205; Table 21
# Protocol: as §6, §7
# HOP-62, NSCLC tumor = assay: Apoptosis induction against solid tumors in vitro, HOP-62; assay type: cell-based; conditions: Homo sapiens; Table 21
# Protocol: as §6, §7
# [5] = Table 5, TAMH cells overexpressing Bcl-xL (Tabx2s), read-out: 2S EC50
# [6] = Table 3, TAMH cells overexpressing Bcl-xL (Tabx2s), read-out: 2S EC50
# [7] = Table 4, TAMH-Bcl-xL cells, read-out: Bcl-xL
compound,measurement,setting,value
O=C(/N=C/c1cc(Br)cc(Br)c1O)c1ccccc1 [Compound 0347],Log P,Log P; Table 6,4.250
same,EC50,"[1]; Table 6, TAMH cells overexpressing Bcl-xL (Tabx2s), read-out: 2S EC50",500 nM
same,EC50,"[2]; Table 6, read-out: Neo EC50",5.8 µM
CC(C)(C)c1ccc(Cc2ccc(Cl)cc2Cl)cc1 [Compound 0149],logP,Log P,6.28
same,EC50,"[1]; Mus musculus, Table 6, TAMH cells overexpressing Bcl-xL (Tabx2s), read-out: 2S EC50",1100 nM
same,EC50,"[2]; Mus musculus, Table 6, read-out: Neo EC50",9.2 µM
CC(C)(C)c1ccc(Cc2ccc(Oc3ccccc3)cc2O)cc1 [Compound 0155],Log P,Log P; Table 5,7.24
same,EC50,[1]; [5],1900 nM
same,EC50,"[2]; Table 5, read-out: Neo EC50",12 µM
COc1cc(O)c(/C=N/Nc2ccccn2)cc1Br [Compound 0351],EC50,[3],> 25 µM
same,WT:142L,[3],1
same,Log P,Log P; Table 3,3.03
same,EC50,[1]; [6],2600 nM
same,EC50,[1]; [7],> 25000 nM
same,Neo:Bcl,[1]; Table 4,1
same,EC50,"[2]; Table 3, read-out: Neo EC50",≥ 50 µM
same,EC50,"[2]; Table 4, read-out: Neo",> 25 µM
Oc1c(Br)cc(Br)cc1/C=N/Nc1ccccn1 [Compound 0245],Log P,Log P; Table 3,3.540
same,EC50,[1]; [6],3300 nM
same,EC50,"[2]; Table 3, read-out: Neo EC50",≥ 50 µM
CC(C)(C)c1cc(Br)c(O)c(/C=N/Nc2ccccn2)c1 [Compound 0401],EC50,[3],> 25 µM
same,WT:142L,[3],2.2
same,Log P,Log P; Table 3,4.810
same,EC50,[1]; [6],1700 nM
same,EC50,[1]; [7],4400 nM
same,Neo:Bcl,[1]; Table 4,5.7
same,EC50,"[2]; Table 3, read-out: Neo EC50",40.8 µM
same,EC50,"[2]; Table 4, read-out: Neo",> 25 µM
CC(C)(C)c1cc(O)c(/C=N/Nc2ccccn2)cc1Br [Compound 0353],Log P,Log P; Table 3,4.810
same,EC50,[1]; [6],1300 nM
same,EC50,"[2]; Table 3, read-out: Neo EC50",10 µM
Oc1c(Cl)cc(Cl)cc1/C=N/Nc1ccc(C(F)(F)F)cn1 [FH092],EC50,"H23, NSCLC tumor",3.7 µM
same,EC50,[4],2.7 µM
same,EC50,"COLO205, a colonic tumor",6.7 µM
same,EC50,"HOP-62, NSCLC tumor",8.3 µM
Oc1ccc(Br)cc1/C=N/Nc1ccccn1 [Compound 0241],Log P,Log P; Table 3,2.740
same,EC50,[1]; [6],200 nM
same,EC50,"[2]; Table 3, read-out: Neo EC50",≥ 50 µM
COc1c(Cl)cc(/C=N/Nc2ccccn2)c(O)c1Br [Compound 0355],Log P,Log P; Table 3,3.820
same,EC50,[1]; [6],1600 nM
same,EC50,"[2]; Table 3, read-out: Neo EC50",33 µM
Oc1ccc(Cl)cc1/C=N/Nc1ccc(C(F)(F)F)cn1 [Compound 0231],Log P,Log P; Table 3,3.560
same,EC50,[1]; [6],2100 nM
same,EC50,"[2]; Table 3, read-out: Neo EC50",≥ 50 µM
O=[N+]([O-])c1ccc(O)c(/C=N/Nc2nccc3ccccc23)c1O [FH314],EC50,"H23, NSCLC tumor",8.2 µM
same,EC50,[4],3.8 µM
same,EC50,"COLO205, a colonic tumor",9.2 µM
same,EC50,"HOP-62, NSCLC tumor",17.5 µM
COc1cc(Br)c(O)c(/C=N/NC(=O)c2ccccc2)c1 [Compound 0283],EC50,[3],> 25 µM
same,WT:142L,[3],7.1
same,Log P,Log P; Table 3,3.730
same,EC50,[1]; [6],2500 nM
same,EC50,[1]; [7],3500 nM
same,Neo:Bcl,[1]; Table 4,7.1
same,EC50,"[2]; Table 3, read-out: Neo EC50",≥ 50 µM
same,EC50,"[2]; Table 4, read-out: Neo",> 25 µM
CC(=O)Oc1ccc(C)cc1Cc1cc(C)cc(Cc2cc(C)ccc2OC(C)=O)c1OC(C)=O [Compound 0098],Log P,Log P; Table 5,7.45
same,EC50,[1]; [5],1600 nM
same,EC50,"[2]; Table 5, read-out: Neo EC50",10.4 µM
COc1ccc(C(=O)N/N=C2\C(=O)c3c(C)cc(C)cc3CC2(C)C)cc1 [Compound 310343],IC50,"[1]; Mus musculus, TAMH, Table 16, read-out: TAMH Bcl-XL IC50",25 µM
same,Fold Selectivity (Neo/Bcl-XL),[1]; Table 16,>4
same,IC50,"[2]; Mus musculus, TAMH, Table 16, read-out: TAMH Neo IC50",> 100 µM
Cc1cc(C(C)(C)C)cc(Cc2cc(C(C)(C)C)cc(Cc3cc(C(C)(C)C)cc(C)c3O)c2O)c1O [Compound 634604],Fold Select. (Neo/Bcl-xL),[1]; Table 13,6.4
same,IC50,"[1]; Table 13, read-out: IC50 TAMH Bcl-xL",5 µM
same,IC50,"[2]; Table 13, read-out: IC50 TAMH Neo",32.1 µM
CC(C)c1ccc(S(=O)(=O)c2ccc([N+](=O)[O-])cc2[N+](=O)[O-])cc1 [Compound 85653],Fold Selectivity (Neo/Bcl-XL),[1]; Table 15,2.7
same,IC50,"[1]; Table 15, read-out: IC50 TAMH Bcl-XL",4.5 µM
same,IC50,"[2]; Table 15, read-out: IC50 TAMH Neo",12 µM
